#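 Exposure lasted 48 hours, with cells grown in 96-well plates and compounds tested at five concentrations. At the TGI there is no net growth.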
# Legend:
# Test in all cases: inhibition of tumour cell growth, NCI panel, 48 h
# MDA-MB-435 = test system: MDA-MB-435
# SF-539 CNS = test system: SF-539 CNS
# OVCAR-8 ovarian = test system: OVCAR-8 ovarian
# KM12 colon = test system: KM12 colon
# SW-620 colon = test system: SW-620 colon
# COLO 205 colon = test system: COLO 205 colon
# T-47D breast = test system: T-47D breast
# RPMI-8226 leukemia = test system: RPMI-8226 leukemia
# UACC-257 melanoma = test system: UACC-257 melanoma
# HOP-62 NSCLC = test system: HOP-62 NSCLC
# M14 melanoma = test system: M14 melanoma
# K-562 leukemia = test system: K-562 leukemia
# OVCAR-4 ovarian = test system: OVCAR-4 ovarian
# HT29 colon = test system: HT29 colon
# SK-MEL-28 melanoma = test system: SK-MEL-28 melanoma
# BT-549 breast = test system: BT-549 breast
# SN12C renal = test system: SN12C renal
# DU-145 prostate = test system: DU-145 prostate
# EKVX NSCLC = test system: EKVX NSCLC
# U251 CNS = test system: U251 CNS
# NCI-H23 lung = test system: NCI-H23 lung
# SNB-19 CNS = test system: SNB-19 CNS
# MCF7 breast = test system: MCF7 breast
# SF-295 CNS = test system: SF-295 CNS
# PC-3 prostate = test system: PC-3 prostate
# UACC-62 melanoma = test system: UACC-62 melanoma
# MOLT-4 leukemia = test system: MOLT-4 leukemia
# SNB-75 CNS = test system: SNB-75 CNS
# TK-10 renal = test system: TK-10 renal
# SK-OV-3 ovarian = test system: SK-OV-3 ovarian
# OVCAR-3 ovarian = test system: OVCAR-3 ovarian
# MDA-MB-231 breast = test system: MDA-MB-231 breast
# UO-31 renal = test system: UO-31 renal
# HCT-116 colon = test system: HCT-116 colon
# HCC-2998 colon = test system: HCC-2998 colon
# NCI-H460 lung = test system: NCI-H460 lung
# SR leukemia = test system: SR leukemia
# OVCAR-5 ovarian = test system: OVCAR-5 ovarian
# HOP-92 NSCLC = test system: HOP-92 NSCLC
# SF-268 CNS = test system: SF-268 CNS
# HL-60(TB) leukemia = test system: HL-60(TB) leukemia
# CCRF-CEM leukemia = test system: CCRF-CEM leukemia
# IGROV1 ovarian = test system: IGROV1 ovarian
# LOX IMVI melanoma = test system: LOX IMVI melanoma
# SK-MEL-5 melanoma = test system: SK-MEL-5 melanoma
# HCT-15 colon = test system: HCT-15 colon
# NCI-H522 lung = test system: NCI-H522 lung
# A549 NSCLC = test system: A549 NSCLC
smiles,measurement,setting,value
CCOc1ncn(-c2ccc(NC(=S)Nc3ncccn3)cc2)n1,TGI,MDA-MB-435,> 100 µM
same,TGI,SF-539 CNS,33.5 µM
same,TGI,OVCAR-8 ovarian,56 µM
same,TGI,KM12 colon,> 100 µM
same,TGI,SW-620 colon,> 100 µM
same,TGI,COLO 205 colon,81.7 µM
same,TGI,T-47D breast,62.2 µM
same,TGI,RPMI-8226 leukemia,> 100 µM
same,TGI,UACC-257 melanoma,> 100 µM
same,TGI,HOP-62 NSCLC,> 100 µM
same,TGI,M14 melanoma,91.3 µM
same,TGI,K-562 leukemia,> 100 µM
same,TGI,OVCAR-4 ovarian,> 100 µM
same,TGI,HT29 colon,25.7 µM
same,TGI,SK-MEL-28 melanoma,59.8 µM
same,TGI,BT-549 breast,71.1 µM
same,TGI,SN12C renal,> 100 µM
same,TGI,DU-145 prostate,> 100 µM
same,TGI,EKVX NSCLC,> 100 µM
same,TGI,U251 CNS,> 100 µM
same,TGI,NCI-H23 lung,> 100 µM
same,TGI,SNB-19 CNS,> 100 µM
same,TGI,MCF7 breast,> 100 µM
same,TGI,SF-295 CNS,> 100 µM
same,TGI,PC-3 prostate,> 100 µM
same,TGI,UACC-62 melanoma,91 µM
same,TGI,MOLT-4 leukemia,57.3 µM
same,TGI,SNB-75 CNS,> 100 µM
same,TGI,TK-10 renal,> 100 µM
same,TGI,SK-OV-3 ovarian,> 100 µM
same,TGI,OVCAR-3 ovarian,> 100 µM
same,TGI,MDA-MB-231 breast,64.6 µM
same,TGI,UO-31 renal,36 µM
same,TGI,HCT-116 colon,> 100 µM
same,TGI,HCC-2998 colon,46 µM
same,TGI,NCI-H460 lung,> 100 µM
same,TGI,SR leukemia,59.5 µM
same,TGI,OVCAR-5 ovarian,> 100 µM
same,TGI,HOP-92 NSCLC,87 µM
same,TGI,SF-268 CNS,> 100 µM
same,TGI,HL-60(TB) leukemia,65.2 µM
same,TGI,CCRF-CEM leukemia,59.1 µM
same,TGI,IGROV1 ovarian,> 100 µM
same,TGI,LOX IMVI melanoma,37.9 µM
same,TGI,SK-MEL-5 melanoma,44.9 µM
same,TGI,HCT-15 colon,> 100 µM
same,TGI,NCI-H522 lung,38.6 µM
same,TGI,A549 NSCLC,> 100 µM

# Source: PubChem BioAssay (NCI)
